# Laboratory results taken from US10065990B2, “Cyclic peptide compound, and preparation method, pharmaceutical composition and use thereof” (HANGZHOU GUANYU BIO-MEDICAL CO., LTD, priority 2013, dated 2018).
# Where two headings read alike, the source gives them in different places.
# Tests used:
# [1] = tested on: lncap (prostate cancer cells); test: MTT cancer cell growth inhibition; type: cell-based; details: MTT, 72 hours incubation, read-out: GI50 lnca
# Procedure, shortened: (§1)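 Growth inhibition is scored with MTT after three days of compound treatment spanning 10^−5–10^−10 M. Cells are maintained in DMEM or 1640 medium containing 10% FBS and plated at 1500 per well the previous night; absorbance at 570 nm gives viability, from which GI50 is calculated.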
# [2] = tested on: MOLT-4 (human acute lymphoblastic leukemia cells); test: MTT cancer cell growth inhibition; type: cell-based; details: MTT, 72 hours incubation, read-out: GI50 Mol
# Procedure, shortened: as §1
# [3] = tested on: Bel-7402 (human hepatoma cells); test: MTT cancer cell growth inhibition; type: cell-based; details: MTT, 72 hours incubation, Bel-7402 cells, read-out: GI50 Bel-7402
# Procedure, shortened: as §1
# [4] = tested on: DU145 (human prostate cancer cells); test: MTT cancer cell growth inhibition; type: cell-based; details: MTT, 72 hours incubation, read-out: GI50 Du1
# Procedure, shortened: as §1
# [5] = tested on: U937 (human leukemia cells); test: MTT cancer cell growth inhibition; type: cell-based; details: MTT, 72 hours incubation, read-out: GI50 U93
# Procedure, shortened: as §1
# [6] = tested on: MCF-7 (human breast cancer cells); test: MTT cancer cell growth inhibition; type: cell-based; details: 72 hours incubation, read-out: GI50 MCF
# Procedure, shortened: as §1
# [7] = tested on: A549 (human lung cancer cells); test: MTT cancer cell growth inhibition; type: cell-based; details: MTT, 72 hours incubation, read-out: GI50 A54
# Procedure, shortened: as §1
# [8] = tested on: BGC-823 (human gastric cancer cells); test: MTT cancer cell growth inhibition; type: cell-based; details: MTT, 72 hours incubation, read-out: GI50 BG
# Procedure, shortened: as §1
# [9] = tested on: MDA-MB-231 (breast cancer cells); test: MTT cancer cell growth inhibition; type: cell-based
# Procedure, shortened: as §1
# [10] = tested on: HCC827 (human non-small cell lung cancer cells); test: MTT cancer cell growth inhibition; type: cell-based; details: MTT, 72 hours incubation, HCC827 cells, read-out: GI50 HCC827
# Procedure, shortened: as §1
# [11] = tested on: H1975 (non-small cell lung adenocarcinoma); test: MTT cancer cell growth inhibition; type: cell-based; details: MTT, 72 hours incubation, H1975 cells, read-out: GI50 H1975
# Procedure, shortened: as §1
# [12] = tested on: KBM5-T315I (human chronic myelogenous leukemia); test: MTT cancer cell growth inhibition; type: cell-based; details: MTT, 72 hours incubation, KBM5-T315I cells, read-out: GI50 KBM5-T315I
# Procedure, shortened: as §1
# [13] = tested on: N-87 (human gastric cancer cells); test: MTT cancer cell growth inhibition; type: cell-based; details: MTT, 72 hours incubation, N-87 cells, read-out: GI50 N-87
# Procedure, shortened: as §1
# [14] = tested on: KBM-5 (human chronic myelogenous leukemia); test: MTT cancer cell growth inhibition; type: cell-based; details: MTT, 72 hours incubation, KBM-5 cells, read-out: GI50 KBM-5
# Procedure, shortened: as §1
# [15] = tested on: PANC-1 (Pac-1, human pancreatic cancer cells); test: MTT cancer cell growth inhibition; type: cell-based; details: MTT, 72 hours incubation, read-out: GI50 PAN
# Procedure, shortened: as §1
# [16] = tested on: SGC-7901 (human gastric cancer cells); test: MTT cancer cell growth inhibition; type: cell-based; details: MTT, 72 hours incubation, SGC-7901 cells, read-out: GI50 SGC-7901
# Procedure, shortened: as §1
# [17] = tested on: Huh-7 (human hepatoma cells); test: MTT cancer cell growth inhibition; type: cell-based; details: MTT, 72 hours incubation, Huh-7 cells, read-out: GI50 Huh-7
# Procedure, shortened: as §1
# [18] = tested on: Hela (human cervical cancer cells); test: MTT cancer cell growth inhibition; type: cell-based; details: MTT, 72 hours incubation, read-out: GI50 Hela
# Procedure, shortened: as §1
# [19] = tested on: K562 (human leukemia cells); test: MTT cancer cell growth inhibition; type: cell-based; details: MTT, 72 hours incubation, K562 cells, read-out: GI50 K562
# Procedure, shortened: as §1
# [20] = tested on: HT1080 (human fibrosarcoma cells); test: MTT cancer cell growth inhibition; type: cell-based; details: MTT, 72 hours incubation, read-out: GI50 HT1
# Procedure, shortened: as §1
# HDAC2 = HDAC2 (Homo sapiens, UniProt Q92769); test: HDAC biochemical activity measurement (fluorescent substrate deacetylation);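 also: HDAC2 enzyme with an acetyl-lysine fluorescent substrate, then developer added, fluorescence read at excitation 360 nm and emission 460 nm, inhibition measured across several compound concentrations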; details: 37° C. 30 minutes
# Sequence of HDAC2 (Q92769 whole entry, species assumed): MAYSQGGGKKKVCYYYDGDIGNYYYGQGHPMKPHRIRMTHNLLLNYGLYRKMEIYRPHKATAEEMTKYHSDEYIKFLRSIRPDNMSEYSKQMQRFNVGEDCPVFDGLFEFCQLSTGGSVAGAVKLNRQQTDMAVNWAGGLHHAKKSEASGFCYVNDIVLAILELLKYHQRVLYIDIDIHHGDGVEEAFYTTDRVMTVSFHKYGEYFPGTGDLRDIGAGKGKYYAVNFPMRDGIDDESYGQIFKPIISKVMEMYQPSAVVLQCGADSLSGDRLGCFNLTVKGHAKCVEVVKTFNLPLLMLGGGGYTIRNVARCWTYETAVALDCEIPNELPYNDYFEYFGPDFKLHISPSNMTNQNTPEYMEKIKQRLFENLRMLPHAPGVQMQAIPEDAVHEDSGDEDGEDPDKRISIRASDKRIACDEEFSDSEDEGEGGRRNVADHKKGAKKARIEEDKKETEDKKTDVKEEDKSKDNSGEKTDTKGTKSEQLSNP
# [21] = Homo sapiens, MDA-MB-231, 72 h, read-out: GI50 MDA-MB-231, MTT, 72 hours incubation, MDA-MB-231 cells
Compound,"GI50 ([1]; Homo sapiens, LNCaP, 72 h)","GI50 ([2]; Homo sapiens, MOLT-4, 72 h)","GI50 ([3]; Homo sapiens, Bel-7402, 72 h)","GI50 ([4]; Homo sapiens, DU-145, 72 h)","GI50 ([5]; Homo sapiens, U-937, 72 h)","GI50 ([6]; Homo sapiens, MCF7, 72 h)","GI50 ([7]; Homo sapiens, A549, 72 h)","GI50 ([8]; Homo sapiens, BGC-823, 72 h)","GI50 [9, 21]","GI50 ([10]; Homo sapiens, HCC827, 72 h)","GI50 ([11]; Homo sapiens, NCI-H1975, 72 h)","GI50 ([12]; Homo sapiens, 72 h)","GI50 ([13]; Homo sapiens, 72 h)","GI50 ([14]; Homo sapiens, KBM5, 72 h)","GI50 ([15]; Homo sapiens, PANC-1, 72 h)","GI50 ([16]; Homo sapiens, SGC-7901, 72 h)","GI50 ([17]; Homo sapiens, Huh-7, 72 h)","GI50 ([18]; Homo sapiens, HeLa, 72 h)","GI50 ([19]; Homo sapiens, K562, 72 h)",IC50 (HDAC2),also measured
C/C=C1\NC(=O)c2nc(ccc2F)CNC(=O)C[C@@H](/C=C/CCSC(C)=O)OC(=O)[C@H](CCCCN)NC1=O [Compound 72],30 nM,30 nM,61 nM,30 nM,30 nM,30 nM,20 nM,60 nM,37 nM,61 nM,34 nM,39 nM,61 nM,49 nM,60 nM,26 nM,37 nM,40 nM,33 nM,331 nM,"GI50 ([20]; Homo sapiens, HT-1080, 72 h): 60 nM"
C/C=C1\NC(=O)c2cc(F)cc(n2)CNC(=O)C[C@@H](/C=C/CCSC(C)=O)OC(=O)[C@H](CCCCNC(=O)OCC2c3ccccc3-c3ccccc32)NC1=O [Compound 76],20 nM,20 nM,72 nM,10 nM,30 nM,30 nM,50 nM,30 nM,26 nM,72 nM,34 nM,34 nM,32 nM,94 nM,70 nM,51 nM,26 nM,90 nM,17 nM,36 nM,"GI50 ([20]; Homo sapiens, HT-1080, 72 h): 70 nM"
C/C=C1\NC(=O)c2ccc(SC)c(n2)CNC(=O)C[C@@H](/C=C/CCSC(=O)CCCCCCC)OC(=O)[C@H](Cc2ccccc2)NC1=O [Compound 191],,,51 nM,,,,,,52 nM,49 nM,32 nM,32 nM,11 nM,36 nM,,33 nM,89 nM,,41 nM,36 nM,"GI50 ([1]; Homo sapiens, LNCaP, 72 h, lncap cells): 310 nM; GI50 ([2]; Homo sapiens, MOLT-4, 72 h, MOLT-4 cells): 50 nM; GI50 ([4]; Homo sapiens, DU-145, 72 h, DU145 cells): 40 nM; GI50 ([5]; Homo sapiens, U-937, 72 h, U937 cells): 30 nM; GI50 ([6]; Homo sapiens, MCF7, 72 h, MCF-7 cells): 170 nM; GI50 ([7]; Homo sapiens, A549, 72 h, A549 cells): 70 nM; GI50 ([8]; Homo sapiens, BGC-823, 72 h, BGC-823 cells): 100 nM; GI50 ([15]; Homo sapiens, PANC-1, 72 h, PANC-1 cells): 50 nM; GI50 ([18]; Homo sapiens, HeLa, 72 h, Hela cells): 130 nM; GI50 ([20]; Homo sapiens, HT-1080, 72 h, HT1080 cells): 50 nM"
C/C=C1\NC(=O)c2cc(F)cc(n2)CNC(=O)C[C@@H](/C=C/CCSC(C)=O)OC(=O)[C@H](CC)NC1=O [Compound 58],30 nM,30 nM,49 nM,20 nM,60 nM,80 nM,50 nM,60 nM,39 nM,49 nM,61 nM,82 nM,61 nM,69 nM,40 nM,51 nM,39 nM,60 nM,26 nM,21 nM,"GI50 ([20]; Homo sapiens, HT-1080, 72 h): 40 nM"
C/C=C1\NC(=O)c2nc(cc(SC)n2)CNC(=O)C[C@@H](/C=C/CCSC(C)=O)OC(=O)[C@H](C(C)C)NC1=O [Compound 216],,,,,,,,,,,,,,,,,,,,33 nM,"GI50 ([1]; lncap cells): 10 nM; GI50 ([2]; MOLT-4 cells): 40 nM; GI50 [3]: 23 nM; GI50 ([4]; DU145 cells): 20 nM; GI50 ([5]; U937 cells): 80 nM; GI50 ([6]; MCF-7 cells): 50 nM; GI50 ([7]; A549 cells): 80 nM; GI50 ([8]; BGC-823 cells): 60 nM; GI50 ([9]; read-out: GI50 MDA-MB-231, MTT, 72 hours incubation, MDA-MB-231 cells): 62 nM; GI50 [10]: 59 nM; GI50 [11]: 87 nM; GI50 [12]: 36 nM; GI50 [13]: 37 nM; GI50 [14]: 38 nM; GI50 ([15]; PANC-1 cells): 20 nM; GI50 [16]: 38 nM; GI50 [17]: 49 nM; GI50 ([18]; Hela cells): 70 nM; GI50 [19]: 56 nM; GI50 ([20]; HT1080 cells): 50 nM"
